Experimental findings from US11584714B2 (priority 2018, dated 2023) are described below.

One assay deals with MASP-2 (CCP1-CCP2-SP) (Homo sapiens (Human), UniProt O00187). As to the kind of experiment: biochemical. The class given is biochemical. The following applies: for MASP-2 vs. thrombin selectivity: selectivity for MASP-2 inhibition versus thrombin.
A further assay has as its target human α-thrombin (Homo sapiens (Human), UniProt P00734). Briefly: Enzymatic assay for thrombin (Boc-VPR-AMC substrate). The format is biochemical.

Structures are written as SMILES. Where a name gives a salt, the structure may show the parent alone. Read-outs that look alike come from different tables or passages of the source.

Chain of MASP-2 (CCP1-CCP2-SP) (O00187 445-686): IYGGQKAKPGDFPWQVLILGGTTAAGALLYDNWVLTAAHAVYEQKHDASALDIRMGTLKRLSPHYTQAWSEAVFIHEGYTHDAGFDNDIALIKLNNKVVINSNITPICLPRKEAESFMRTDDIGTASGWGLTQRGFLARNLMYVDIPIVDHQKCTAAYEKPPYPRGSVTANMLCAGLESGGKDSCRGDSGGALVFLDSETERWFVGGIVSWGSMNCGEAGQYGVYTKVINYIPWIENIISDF

Broadly, the Ki is a dissociation constant, usually derived from enzyme kinetics or from competition with a known ligand. For the compound `Cc1cccc([C@H]2CN[C@@H](C(=O)N[C@@H](C)C(=O)NCc3cc(Cl)ccc3O)C2)c1` [compound 1254, (2R,4S)—N—((S)-1-((5-Chloro-2-hydroxybenzyl)amino)-1-oxopropan-2-yl)-4-(m-tolyl)pyrrolidine-2-carboxamide], the values for the Ki on MASP-2 (CCP1-CCP2-SP) (read-out: MASP-2 Ki) and at human α-thrombin (Thrombin Ki (μM)) were less than 500 nM and 10 to 25 µM, respectively. Further, the “MASP-2 vs. thrombin selectivity” value at MASP-2 (CCP1-CCP2-SP) was “*** (≥25 to <100-fold)”.
For `C[C@H](NC(=O)[C@@H](CCc1ccccc1)NCc1ccc2cc(O)ccc2c1)C(=O)NCc1ccc(C(=N)N)cc1` [compound 1256, (R)—N—((S)-1-((4-Carbamimidoylbenzyl)amino)-1-oxopropan-2-yl)-2-(((6-hydroxynaphthalen-2-yl)methyl)amino)-4-phenylbutanamide], the Ki was less than 500 nM on MASP-2 (CCP1-CCP2-SP) (read-out: MASP-2 Ki) and less than 0.5 µM at human α-thrombin (read-out: Thrombin Ki). For the same compound, at MASP-2 (CCP1-CCP2-SP), the “MASP-2 vs. thrombin selectivity” value is given as “* (≥1.0 to <5.0-fold)”.
Consider `COC(=O)NC(=N)c1ccc(CNC(=O)[C@H](C)NC(=O)[C@H]2C[C@H](c3ccccc3)CN2)cc1` [compound 1258, Methyl (imino(4-(((S)-2-((2R,4R)-4-phenylpyrrolidine-2-carboxamido)propanamido)methyl)phenyl)methyl)carbamate], for which the Ki at MASP-2 (CCP1-CCP2-SP) is 2500 to 10000 nM; on human α-thrombin (read-out: Thrombin Ki), greater than 25 µM.
With `C[C@H](NC(=O)[C@H]1C[C@H](c2ccccc2)CN1)C(=O)NCc1ccc(C(=N)NC(=O)OCc2ccccc2)cc1` [compound 1259, Benzyl (imino(4-(((S)-2-((2R,4R)-4-phenylpyrrolidine-2-carboxamido)propanamido)methyl)phenyl)methyl)carbamate], the Ki at MASP-2 (CCP1-CCP2-SP) was 2500 to 10000 nM; at human α-thrombin (read-out: Thrombin Ki), greater than 25 µM.
For the compound `CCCCCCOC(=O)NC(=N)c1ccc(CNC(=O)[C@H](C)NC(=O)[C@H]2C[C@H](c3ccccc3)CN2)cc1` [compound 1260, Hexyl (imino(4-(((S)-2-((2R,4R)-4-phenylpyrrolidine-2-carboxamido)propanamido)methyl)phenyl)methyl)carbamate], the Ki on MASP-2 (CCP1-CCP2-SP) (read-out: MASP-2 Ki) is 2500 to 10000 nM; on human α-thrombin (read-out: Thrombin Ki), greater than 25 µM.
With `COc1cccc([C@H]2CN[C@@H](C(=O)N[C@@H](C)C(=O)NCc3ccc(C(=N)N)cc3)C2)c1` [compound 1262, (2R,4S)—N—((S)-1-((4-Carbamimidoylbenzyl)amino)-1-oxopropan-2-yl)-4-(3-methoxyphenyl)pyrrolidine-2-carboxamide], the Ki was less than 500 nM at MASP-2 (CCP1-CCP2-SP) (read-out: MASP-2 Ki) and 0.5 to 2.5 µM at human α-thrombin (Thrombin Ki (μM)). Besides, the “MASP-2 vs. thrombin selectivity” value at MASP-2 (CCP1-CCP2-SP) is given as “*** (≥25 to <100-fold)”.
On to `C[C@H](NC(=O)[C@H](N)CCc1ccccc1)C(=O)NCc1cc(Cl)ccc1-n1cnnn1` [compound 1325, (R)-2-amino-N—((S)-1-((5-chloro-2-(1H-tetrazol-1-yl)benzyl)amino)-1-oxopropan-2-yl)-4-phenylbutanamide], for which the “MASP-2 vs. thrombin selectivity” value on MASP-2 (CCP1-CCP2-SP) is on record as “−− (<1.0-fold)”. Also, the Ki on human α-thrombin (read-out: Thrombin Ki) is less than 0.5 µM.
Regarding `Cc1cccc(CNC(=O)[C@H](C)NC(=O)[C@H]2C[C@H](Cc3ccccc3)CN2)c1-n1ncnn1` [compound 1437, (2R,4S)-4-Benzyl-N-((S)-1-((3-methyl-2-(2H-tetrazol-2-yl)benzyl)amino)-1-oxopropan-2-yl)pyrrolidine-2-carboxamide], the “MASP-2 vs. thrombin selectivity” value on MASP-2 (CCP1-CCP2-SP) is reported as “** (≥5.0 to <25-fold)”. The Ki at human α-thrombin (read-out: Thrombin Ki) is greater than 25 µM.
On to `N=C(N)c1ccc2[nH]c(-c3c[nH]cn3)nc2c1` [compound 2000, 2-(1H-imidazol-4-yl)-1H-benzo[d]imidazole-5-carboximidamide dihydrochloride], for which the Ki on MASP-2 (CCP1-CCP2-SP) is greater than 25000 nM; on MASP-2 (CCP1-CCP2-SP) (+Zn, read-out: MASP-2 Ki), less than 500 nM; at human α-thrombin (+Zn, read-out: Thrombin Ki), less than 10 µM; at human α-thrombin (Thrombin Ki (μM), +EDTA) it was greater than 25 µM. For the same compound, the “MASP-2 versus thrombin selectivity” value on MASP-2 (CCP1-CCP2-SP) (+Zn) is listed as “++ (+Zn) (5.0 to 25-fold)”.
For `N=C(N)c1ccc2[nH]c(-c3ccccn3)nc2c1` [compound 2001, 2-(Pyridin-2-yl)-1H-benzo[d]imidazole-5-carboximidamide Dihydrochloride], in that order: greater than 25000 nM, less than 500 nM, less than 2.5 µM, greater than 25 µM and “++ (+Zn) (5.0 to 25-fold)”.
